Where a name gives a salt, the structure may show the parent alone.
What was measured:
human GST-RIPK1 = target: T1, human GST-RIPK1 (Homo sapiens, UniProt Q13546); assay: RIPK1 inhibitory activity (ADP-Glo kinase assay); type: biochemical; conditions: human GST-RIPK1 10 ng, ATP 50 uM, 25° C. for 4 hours, read-out: Enzyme IC50
T1 construct: GST; purchased signalchem
T1 sequence (Q13546 1-375 limits assumed): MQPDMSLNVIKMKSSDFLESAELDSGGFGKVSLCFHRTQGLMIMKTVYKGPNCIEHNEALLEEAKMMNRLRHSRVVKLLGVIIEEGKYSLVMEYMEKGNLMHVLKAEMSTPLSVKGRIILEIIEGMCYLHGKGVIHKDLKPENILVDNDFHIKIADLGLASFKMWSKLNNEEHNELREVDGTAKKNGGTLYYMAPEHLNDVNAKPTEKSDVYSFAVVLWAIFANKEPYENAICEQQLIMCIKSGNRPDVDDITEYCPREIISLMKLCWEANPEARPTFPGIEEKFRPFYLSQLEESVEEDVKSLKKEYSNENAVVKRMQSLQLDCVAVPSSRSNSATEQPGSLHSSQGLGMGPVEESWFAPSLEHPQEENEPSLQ
Experimental: The following experiment was performed to evaluate the inhibitory activity of the example compounds according to the present invention against RIPK1 (receptor-interacting serine/threonine protein kinase 1).
The example compound was reacted with the purified human GST-RIPK1 (1375, signalchem) enzyme to evaluate the enzyme inhibitory activity in the following manner. The composition of the reaction buffer used herein was as follows: 40 mM Tris-Hcl pH 7.4, 20 mM MgCl2, 0.5 mg/ml, BSA and 0.5 uM DTT. All the test materials were reacted in the reaction buffer. After reacting human GST-RIPK1 (1375, 10 ng), purified ATP (50 uM) and a specific substrate solution at 25° C. for 4 hours, the enzyme activity was confirmed using an in vitro ADP-Glo™ kinase assay (promega). Luminoscence was measured by reacting the enzyme activity reaction solution, ADP-Glo reaction solution, and enzyme activity detection solution at the ratio of 2:2:1. The degree of enzyme activity inhibition according to the treatment concentration of each compound was calculated based on the fluorescence of the enzyme activity of the solvent control not treated with the compound. At this time, the concentration of each compound inhibiting 50% of the enzyme activity was determined as IC50 (nM). IC50 of each compound was determined with three data sets and calculated using Prism (version 7.01, GraphPad) software.

[1] = tested on: human Jurkat T cells deficient in FADD; assay: Cell protection effect under apoptosis-inducing condition (TNF-α); type: cell-based; conditions: 40 ng of TNF-α, 50 hours, CellTiter-Glo, read-out: I2.I Cell EC50
Experimental: The cell protection effect of the compounds according to the present invention under the condition of inducing apoptosis by TNF-α was confirmed by […]. An apoptosis inducing factor such as TNF-α was treated to induce apoptosis of human Jurkat T cells deficient in FADD, to which the example compound was treated, and the cell protection effect was confirmed through the following analysis. Jurkat T cells deficient in FADD were cultured using RPMI medium (Hyclone) containing 10% FBS. When performing the test, the cells were seeded in a 96-well plate containing a medium suitable for the cell line at the density of 10,000 cells/well, and cultured in a 37° C. 5% CO2 incubator for 24 hours. Then, each well was treated with 40 ng of TNF-α, and the compounds prepared in the above examples were each treated with a 3-fold concentration gradient with 1 μM as the highest concentration. As the solvent control, dimethyl sulfoxide (DMSO) was treated at the concentration of 0.05% (v/v), which was the same concentration as that used for the compound treatment. Then, the cells were cultured for 50 hours. To confirm the degree of viability of the cells, a mixture provided in CellTiter-Gloe Luminescent Cell Viability Assay Kit (Promega) was added to the culture medium of the cells, followed by further culture at 37° C. for 30 minutes. Then, luminescence fluorescence was measured. The degree of inhibition of apoptosis induction according to the treatment concentration of each compound was calculated based on the fluorescence of the solvent control cells not treated with the compound. At this time, the concentration of each compound inhibiting 50% was determined as EC50 (μM). EC50 of each compound was calculated using Prism (version 7.01, GraphPad) software.

Compound	IC50 (human GST-RIPK1)	EC50 [1]
O=C(Nc1ccc(F)c(C#Cc2cnc3cccnn23)c1)N1N=CC[C@H]1c1ccccc1 [Example 45, (S)—N-(4-fluoro-3-(imidazo[1,2-b]pyridazin-3-ylethynyl)phenyl)-5-phenyl-4,5-dihydro-1H-pyrazole-1-carboxamide 2,2,2-trifluoroacetate]	8.8 nM	0.09 nM
O=C(Nc1cccc(C#Cc2cnc3cccnn23)c1)N1N=CCC1c1ccc(C(F)(F)F)cc1 (stereo not shown) [Example 26, N-(3-(imidazo[1,2-b]pyridazin-3-ylethynyl)phenyl)-5-(4-(trifluoromethyl)phenyl)-4,5-dihydro-1H-pyrazole-1-carboxamide 2,2,2-trifluoroacetate]	6.9 nM	201 nM
Cc1ccc(NC(=O)N2N=CCC2c2ccncc2)cc1C#Cc1cnc2cccnn12 (stereo not shown) [Example 18, N-(3-(imidazo[1,2-b]pyridazin-3-ylethynyl)-4-methylphenyl)-5-(pyridin-4-yl)-4,5-dihydro-1H-pyrazole-1-carboxamide 2,2,2-trifluoroacetate]	2.4 nM	0.3 nM
O=C(Nc1cccc(C#Cc2cnc3cccnn23)c1)N1N=CCC1c1ccccn1 (stereo not shown) [Example 37, N-(3-(imidazo[1,2-b]pyridazin-3-ylethynyl)phenyl)-5-(pyridin-2-yl)-4,5-dihydro-1H-pyrazole-1-carboxamide 2,2,2-trifluoroacetate]	1.22 nM	1.84 nM
O=C(Nc1cccc(C#Cc2cnc3cccnn23)c1)N1N=CCC1c1cc(F)cc(F)c1 (stereo not shown) [Example 23, 5-(3,5-difluorophenyl)-N-(3-(imidazo[1,2-b]pyridazin-3-ylethynyl)phenyl)-4,5-dihydro-1H-pyrazole-1-carboxamide 2,2,2-trifluoroacetate]	32.2 nM	1.2 nM
O=C(c1cccc(C#Cc2cnc3cccnn23)c1)N1N=CCC1c1ccccc1 (stereo not shown) [Example 53, (3-(imidazo[1,2-b]pyridazin-3-ylethynyl)phenyl)(5-phenyl-4,5-dihydro-1H-pyrazol-1-yl)methanone 2,2,2-trifluoroacetate]	731 nM	975 nM
O=C(Nc1cccc(C#Cc2cnc3cccnn23)c1)N1N=CCC1c1cccc(Cl)c1 (stereo not shown) [Example 34, 5-(3-chlorophenyl)-N-(3-(imidazo[1,2-b]pyridazin-3-ylethynyl)phenyl)-4,5-dihydro-1H-pyrazole-1-carboxamide 2,2,2-trifluoroacetate]	18.9 nM	43 nM
O=C(Nc1cccc(C#Cc2cnn3cccnc23)c1)N1N=CCC1c1ccccc1 (stereo not shown) [Example 56, 5-phenyl-N-(3-(pyrazolo[1,5-a]pyrimidin-3-ylethynyl)phenyl)-4,5-dihydro-1H--pyrazole-1-carboxamide]	30.5 nM	0.3 nM
Cn1ccc(Nc2cccn3c(C#Cc4cccc(NC(=O)N5N=CCC5c5ccccc5)c4)cnc23)n1 (stereo not shown) [Example 68, N-(3-((8-((1-methyl-1H-pyrazol-3-yl)amino)imidazo[1,2-a]pyridin-3-yl)ethynyl)phenyl)-5-phenyl-4,5-dihydro-1H-pyrazole-1-carboxamide 2,2,2-trifluoroacetate]	38.6 nM	0.12 nM

Next, values leading:

IC50 (human GST-RIPK1)	EC50 [1]	Compound
> 1000 nM	588 nM	O=C(Nc1cccc(C#Cc2cnc3cccnn23)c1)N1N=CC[C@@H]1c1ccccc1 [Example 21, (R)—N-(3-(imidazo[1,2-b]pyridazin-3-ylethynyl)phenyl)-5-phenyl-4,5-dihydro-1H-pyrazole-1-carboxamide hydrochloride]
19.5 nM	0.41 nM	Cc1ccc(NC(=O)N2N=CC[C@H]2c2cccc(F)c2)cc1C#Cc1cnc2cccnn12 [Example 9, (S)-5-(3-fluorophenyl)-N-(3-(imidazo[1,2-b]pyridazin-3-ylethynyl)-4-methylphenyl)-4,5-dihydro-1H-pyrazole-1-carboxamide 2,2,2-trifluoroacetate]
878 nM	364 nM	O=C(Nc1cccc(C#Cc2cnc3cccnn23)c1)N1N=CC[C@@H]1c1cc(F)cc(F)c1 [Example 25, (R)-5-(3,5-difluorophenyl)-N-(3-(imidazo[1,2-b]pyridazin-3-ylethynyl)phenyl)-4,5-dihydro-1H-pyrazole-1-carboxamide 2,2,2-trifluoroacetate]
1.8 nM	0.2 nM	Cc1ccc(NC(=O)N2N=CCC2c2ccccn2)cc1C#Cc1cnc2cccnn12 (stereo not shown) [Example 17, N-(3-(imidazo[1,2-b]pyridazin-3-ylethynyl)-4-methylphenyl)-5-(pyridin-2-yl)-4,5-dihydro-1H-pyrazole-1-carboxamide 2,2,2-trifluoroacetate]
1.9 nM	0.3 nM	O=C(Nc1ccnc(C#Cc2cnc3cccnn23)c1)N1N=CC[C@H]1c1ccccc1 [Example 49, (S)—N-(2-(imidazo[1,2-b]pyridazin-3-ylethynyl)pyridin-4-yl)-5-phenyl-4,5-dihydro-1H-pyrazole-1-carboxamide 2,2,2-trifluoroacetate]
3.4 nM	1.4 nM	O=C(Nc1ccnc(C#Cc2cnc3cccnn23)c1)N1N=CCC1c1ccccc1 (stereo not shown) [Example 48, N-(2-(imidazo[1,2-b]pyridazin-3-ylethynyl)pyridin-4-yl)-5-phenyl-4,5-dihydro-1H-pyrazole-1-carboxamide 2,2,2-trifluoroacetate]
119 nM	1.1 nM	COC(=O)Nc1cccn2c(C#Cc3cccc(NC(=O)N4N=CCC4c4ccccc4)c3)cnc12 (stereo not shown) [Example 64, methyl (3-((3-(5-phenyl-4,5-dihydro-1H-pyrazole-1-carboxamido)phenyl)ethynyl)imidazo[1,2-a]pyridin-8-yl)carbamate]
4.56 nM	0.4 nM	Cc1ccc(NC(=O)N2N=CC[C@H]2c2cc(F)cc(F)c2)cc1C#Cc1cnc2cccnn12 [Example 5, (S)-5-(3,5-difluorophenyl)-N-(3-(imidazo[1,2-b]pyridazin-3-ylethynyl)-4-methylphenyl)-4,5-dihydro-1H-pyrazole-1-carboxamide 2,2,2-trifluoroacetate]
2.98 nM	12 nM	O=C(Nc1cccc(C#Cc2cnc3cccnn23)c1)N1N=CCC1c1cccnc1 (stereo not shown) [Example 36, N-(3-(imidazo[1,2-b]pyridazin-3-ylethynyl)phenyl)-5-(pyridin-3-yl)-4,5-dihydro-1H-pyrazole-1-carboxamide 2,2,2-trifluoroacetate]
5.83 nM	0.3 nM	O=C(Nc1cccc(C#Cc2cnc3cccnn23)c1)N1N=CC[C@H]1c1cccc(F)c1 [Example 29, (S)-5-(3-fluorophenyl)-N-(3-(imidazo[1,2-b]pyridazin-3-ylethynyl)phenyl)-4,5-dihydro-1H-pyrazole-1-carboxamide 2,2,2-trifluoroacetate]
83.6 nM	0.59 nM	Cc1ccc(NC(=O)N2N=CCC2c2cccc(F)c2)cc1C#Cc1cnc2cccnn12 (stereo not shown) [Example 8, 5-(3-fluorophenyl)-N-(3-(imidazo[1,2-b]pyridazin-3-ylethynyl)-4-methylphenyl)-4,5-dihydro-1H-pyrazole-1-carboxamide 2,2,2-trifluoroacetate]
3.8 nM	0.26 nM	O=C(Nc1cccc(C#Cc2cnc3cccnn23)c1)N1N=CCC1c1ccccc1 (stereo not shown) [Example 19, N-(3-(imidazo[1,2-b]pyridazin-3-ylethynyl)phenyl)-5-phenyl-4,5-dihydro-1H-pyrazole-1-carboxamide 2,2,2-trifluoroacetate]
	0.17 nM	Cc1ccc(NC(=O)N2N=CCC2c2ccccc2)cc1C#Cc1cnc2cccnn12 (stereo not shown) [Example 1, N-(3-(imidazo[1,2-b]pyridazin-3-ylethynyl)-4-methylphenyl)-5-phenyl-4,5-dihydro-1H-pyrazole-1-carboxamide 2,2,2-trifluoroacetate]

Source: patent publication US20210284647A1, “N-(3-(IMIDAZO[1,2-B]PYRIDAZIN-3-YLETHYNYL)-4-METHYLPHENYL)-5-PHENYL-4,5-DIHYDRO-1H-PYRAZOLE-1-CARBOXAMIDE DERIVATIVE, AND PHARMACEUTICAL COMPOSITION CONTAINING SAME AS ACTIVE INGREDIENT FOR TREATING KINASE-RELATED DISEASES” (VORONOIBIO INC., priority 2018, published 2021)
